# Several values for one entry are separate records, joined by “and”; a condition that tells them apart may be missing. Equal entries are not always repeated.
# Legend:
# [1] = in vitro; details: human
# Description: All human iPSC-derived blood-brain barrier cells (Brain Microvascular Endothelial Cells (BMECs), Astrocytes and Pericytes (AP)), media (BMEC maintenance medium and AP medium), and media supplements (plating supplement 500X) have been purchased from Fujifilm Cellular Dynamics Inc. (FCDI, Madison, WI, US, catalogue: R1241). The respective certificates of analysis, including cell characterization data, can be accessed in Supplementary Data File 1. All cells were derived from the same proprietary donor. […] All additional experiments included 96-transwell® membranes only. […] BMEC maintenance medium contained only 1 % P/S without supplements. Unless stated differently, transwell® compartment volumes were used as recommended by Corning including 75 µL apically and 235 µL basolaterally for 96-transwells® as well as 300 µL apically and 1000 µL basolaterally for 24-transwells®.
# On day −2, 24-transwells® were coated apically with Collagen IV-Fibronectin coating solution and stored overnight at 4 °C (Fig. 1A). In contrast, 96-transwells® were first flipped upside down, and coated with 50 µL Fibronectin-Collagen IV solution on the basolateral side for 4 h at 37 °C and 5 % CO2 and stored overnight at 4 °C (Fig. 1B). On day −1, 24-transwells® were flipped upside down and coated with 100 µL of a 0.1 % Gelatin solution for 0.5 h at room temperature (RT) before replacement with 100 µL of the AP seeding solution containing 1.1 × 10^6 astrocytes/mL and 2.2 × 10^6 pericytes/mL in AP plating medium. After seeding, cells were incubated to attach for 4 h at 37 °C and 5 % CO2 and then flipped back to normal orientation. […] In both cases, Collagen IV-Fibronectin coating solution was replaced with AP plating medium. […] Here, cells were incubated to attach for 4 h at 37 °C and 5 % CO2 before flipping the transwells® slowly back to normal orientation. To inspect the cell layers for obvious leakages or cell detachment, blank transwell® filters and fully assembled models were observed under a Zeiss Primovert microscope (Carl Zeiss Microscopy GmbH, Jena, Germany) (Supplementary Figure 1). On day 1, BMEC plating medium was replaced by BMEC maintenance medium. After 24 h at 37 °C and 5 % CO2 barrier integrity was evaluated to consider only highly restrictive BBB models for pharmaceutical permeability testing.
# After 60 min at 37 °C, 5 % CO2 and 100 rpm shaking on an orbital shaker, 50 µL were sampled from the donor and acceptor (containing APs) compartment. Following a transfer to 96-well plates, samples were diluted 1:1 with 50 µL of DPBS.
# With cac being the analyte concentration in the acceptor compartment (µM), t the duration of the incubation (s, here 3 600 s), A the surface area of the respective transwell® membrane (cm^2), Vac the volume of the acceptor compartment (mL) and cdc the applied concentration in the donor compartment (µM). Papp was reported as the average of triplicate 24-transwell® models and six 96-transwell® model replicates.
# Additional compound data, including final solvent concentrations and physicochemical properties, were summarized in Supplementary Table 1. After 60 min at 37 °C, 5 % CO2 and 100 rpm shaking on an orbital shaker, 50 µL were sampled from the acceptor and donor compartments of quadruplicate BBB models as well as cell-free controls.
# Then, all samples were subject to protein precipitation with acetonitrile:methanol 50:50 (v/v). After centrifugation for 10 min at 10 000 × g, supernatants were transferred to new vials and subsequently evaporated to dryness. […] Derivatization was executed in a ThermoMixer C (Eppendorf, Hamburg, Germany) at 65 °C and 600 rpm for 15 min. After evaporating samples to dryness again, final reconstitution was performed as described above.
# [2] = tested on: BBB; details: cited from earlier work; for In vivo human rate constant for compound transfer from blood across the BBB into brain (K1): human clinical PET, ref Ghazanfari et al. 2024, Le Roux et al. 2019
# [3] = tested on: hiPSC-derived blood-brain barrier model; test: Bioavailable radioactivity of [benzyl-14C]-Deltamethrin in the transwell media by liquid scintillation counting; details: 1h, per replicate, listed as [benzyl-14C]-Deltamethrin
# [4] = tested on: BBB; test: Prediction of human in vivo K1 from in vitro Papp with the linear model
# [5] = tested on: rats; details: oral dosing, ref Amaraneni et al., 2016, Kim et al., 2008, 2007; cited from earlier work
# [6] = tested on: hiPSC-derived blood-brain barrier model; details: human
# [7] = tested on: hiPSC-derived BBB; set-up: method as in Le Roux et al., 2019; details: high in vitro permeability not confirmed by this study; ref Le Roux et al., 2019; cited from earlier work
# [8] = source not stated; cited from earlier work
# [9] = In vitro hiPSC-derived blood-brain barrier model apparent permeability (Papp)
# [10] = male, in vitro apparent permeability Papp
# [11] = male, in vitro apparent permeability Papp, 96-transwell hiPSC-derived BBB, 60 min, 5 µM (17β-Estradiol 10 µM, Deltamethrin 3 µM)
SMILES,"Papp at 60 min [1, 9] [×10⁻⁶ cm/s]","Papp at 60 min [1, 10] [×10⁻⁶ cm/s]",In vivo human rate constant for compound transfer from blood across the BBB into brain (K1) [2] [mL min^-1 cm^-3],Papp at 60 min ([1]; male) [×10⁻⁶ cm/s],"Papp at 60 min [1, 11] [×10⁻⁶ cm/s]",LogP [8],other results
CC1(C)[C@H](C(=O)O[C@H](C#N)c2cccc(Oc3ccccc3)c2)[C@@H]1C=C(Br)Br [Deltamethrin],–,0.979,–,–,–,–,"Radioactivity Sample apical ([3]; BBB model, acceptor compartment): 1.40 Bq and 1.53 Bq and 1.70 Bq and 2.08 Bq; Radioactivity Sample basolateral ([3]; BBB model, donor compartment): 737.12 Bq and 789.28 Bq and 793.66 Bq and 818.98 Bq; Radioactivity Blank apical ([3]; cell-free control transwell with compound, acceptor compartment): 3.00 Bq and 3.65 Bq and 3.95 Bq and 2.93 Bq; Radioactivity Blank basolateral ([3]; cell-free control transwell with compound, donor compartment): 762.65 Bq and 864.27 Bq and 830.94 Bq and 846.43 Bq; predicted in vivo K1 ([4]; after insertion of Papp into the linear model): −0.099 mL cm^-3 min^-1; Prediction of K1 ([4]; human in vivo K1 predicted from in vitro Papp with the linear model): -0.099 mL min^-1 cm^-3; brain entry and neurotoxic effects in rats [5]: entered the brain and exhibited neurotoxic effects only after 10 mg/kg oral dosing; Bioavailable [benzyl-14C]-Deltamethrin [6]: 786.44 Bq"
C#Cc1cccc(Nc2ncnc3cc(OCCOC)c(OCCOC)cc23)c1 [Erlotinib],–,–,0.02,12.1,< 15,–,in vitro permeability Papp in previous hiPSC-derived BBB results [7]: > 15 × 10^–6 cm/s
CCOC(=O)c1ncn2c1CN(C)C(=O)c1cc(F)ccc1-2 [Flumazenil],–,–,–,–,–,1.9,–
CN(C)C(=O)C(CCN1CCC(O)(c2ccc(Cl)cc2)CC1)(c1ccccc1)c1ccccc1 [Loperamide],–,–,0.002,6.75,< 15,5.13,"human in vivo K1 (clinically shown to enter the human brain relatively poorly) ([2]; human, ref Bauer et al., 2015, Traxl et al.): < 0.05 mL cm^-3 min^-1"

# Now from value to compound, other results behind:
"Papp at 60 min [1, 9] [×10⁻⁶ cm/s]","Papp at 60 min [1, 10] [×10⁻⁶ cm/s]",SMILES,In vivo human rate constant for compound transfer from blood across the BBB into brain (K1) [2] [mL min^-1 cm^-3],Papp at 60 min ([1]; male) [×10⁻⁶ cm/s],"Papp at 60 min [1, 11] [×10⁻⁶ cm/s]",LogP [8],other results
16.9,> 15,C[C@]12CC[C@@H]3c4ccc(O)cc4CC[C@H]3[C@@H]1CC[C@@H]2O [17β-Estradiol],0.24,–,–,–,"human in vivo permeability K1 (elevated) ([2]; human, ref Delforge et al., 1995, Le Roux et al., 2019, Zubieta et al., 2000): > 0.1 mL cm^-3 min^-1"
16.8,> 15,CCN1CCC[C@H]1CNC(=O)c1c(O)c(Cl)cc(Cl)c1OC [Raclopride],0.09,–,–,–,–

# Reference: PMC13288645, “A cryopreserved and in vivo-in vitro validated human induced pluripotent stem cell blood-brain barrier model for reliable neurotoxicity assessment” (NAM journal, 2025)
